From ChEMBL document CHEMBL1201862, “PubChem BioAssay data set” (2004)
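Protocol summary: plate cells (96-well), add compound at 5 concentrations, incubate 48 h, interpolate endpoints linearly. GI50 marks 50% less growth.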 Active and inactive are the calls of the source. No stated cut-off is given here; in the data, active = GI50 up to about 1.1 µM and inactive = higher. Where a SMILES comes first, the peptide text is derived from it. The star is where a group is joined. ONb = O=[N+]([O-])c1ccc(CO*)cc1; Boc = CC(C)(C)OC(=O)*

What was measured:
Assay in all cases: NCI tumour cell line growth inhibition, 48 h
Malme-3M = system: Malme-3M
U-251 = system: U-251
SN12C = system: SN12C
NCI-H522 = system: NCI-H522
A498 = system: A498
MCF7 = system: MCF7
A549 = system: A549
OVCAR-5 = system: OVCAR-5
SW-620 = system: SW-620
NCI-H226 = system: NCI-H226
SK-MEL-5 = system: SK-MEL-5
786-0 = system: 786-0
MDA-N = system: MDA-N
HT-29 = system: HT-29
SK-MEL-28 = system: SK-MEL-28
IGROV-1 = system: IGROV-1
SF-295 = system: SF-295
NCI-H23 = system: NCI-H23
HOP-92 = system: HOP-92

Measured: GI50

Cc1cc(S(=O)(=O)NC2=NCCCN2)c(S)cc1Cl
inactive: Malme-3M 26.4 µM | U-251 34.4 µM | SN12C 49.4 µM | NCI-H522 22 µM | A498 > 100 µM | MCF7 > 10 µM | A549 21.6 µM | OVCAR-5 33 µM | SW-620 19.9 µM | NCI-H226 22.3 µM | SK-MEL-5 17.9 µM | 786-0 20.8 µM | MDA-N 43.9 µM | HT-29 20.8 µM | SK-MEL-28 56.4 µM | IGROV-1 27.5 µM

COc1cccc(-c2cc(=O)c3ccccc3o2)c1N
inactive: Malme-3M 3.62 µM | U-251 > 100 µM | SN12C > 100 µM | SF-295 > 66.1 µM | NCI-H522 27.9 µM | MCF7 > 100 µM | A549 > 91.8 µM | NCI-H23 72.9 µM | HOP-92 > 83.4 µM | OVCAR-5 > 91 µM | SW-620 15.5 µM | NCI-H226 63 µM | SK-MEL-5 42.8 µM | 786-0 71 µM | MDA-N 24.4 µM | HT-29 12.8 µM | SK-MEL-28 10.1 µM | IGROV-1 87.5 µM

COC(=O)c1cc(-c2ccc(-c3ccc(O)cc3)cc2)cc(-c2ccc(-c3ccc(O)cc3)cc2)c1
inactive: SN12C 13.4 µM | SF-295 6.75 µM | NCI-H522 2.62 µM | A498 16.4 µM | MCF7 4.48 µM | A549 8.45 µM | NCI-H23 8.51 µM | HOP-92 6.62 µM | OVCAR-5 15.7 µM | SW-620 7.11 µM | NCI-H226 12.7 µM | SK-MEL-5 17 µM | 786-0 5.98 µM | MDA-N 11 µM | SK-MEL-28 13 µM | IGROV-1 6.44 µM

CSc1nncc2[nH]cnc12
inactive: U-251 > 100 µM | SN12C > 100 µM | SF-295 > 100 µM | A498 > 100 µM | MCF7 > 100 µM | A549 > 100 µM | NCI-H23 > 100 µM | OVCAR-5 > 100 µM | SW-620 > 100 µM | NCI-H226 > 100 µM | SK-MEL-5 > 100 µM | 786-0 > 100 µM | MDA-N > 100 µM | HT-29 > 100 µM | SK-MEL-28 > 100 µM | IGROV-1 > 100 µM

CSc1cc(-c2cccs2)sc1-c1cc(SC)c(-c2sc(-c3sc(-c4cccs4)cc3SC)cc2SC)s1
inactive: Malme-3M > 100 µM | U-251 > 100 µM | SN12C > 100 µM | SF-295 > 100 µM | NCI-H522 > 100 µM | A498 > 100 µM | MCF7 > 100 µM | A549 > 100 µM | NCI-H23 > 100 µM | HOP-92 > 100 µM | OVCAR-5 30.6 µM | SW-620 > 100 µM | SK-MEL-5 > 100 µM | 786-0 > 100 µM | MDA-N > 100 µM | HT-29 > 100 µM | SK-MEL-28 > 100 µM | IGROV-1 > 100 µM

C#CCSc1cnc2ccccc2c1Sc1c[nH]c2ccccc2c1=O
inactive: Malme-3M 19.4 µM | U-251 15 µM | SN12C 12.8 µM | SF-295 24.1 µM | NCI-H522 6.58 µM | MCF7 6.82 µM | A549 14.4 µM | NCI-H23 15.4 µM | HOP-92 16.1 µM | OVCAR-5 32.7 µM | SW-620 24.8 µM | NCI-H226 21 µM | SK-MEL-5 15.6 µM | 786-0 12.4 µM | MDA-N 18.1 µM | HT-29 21.2 µM | SK-MEL-28 34.8 µM | IGROV-1 3.29 µM

NCCS(=O)(=O)O [TAURINE]
inactive: Malme-3M > 100 µM | U-251 > 100 µM | SN12C > 100 µM | SF-295 > 100 µM | NCI-H522 > 100 µM | MCF7 > 100 µM | A549 > 100 µM | NCI-H23 > 100 µM | HOP-92 > 100 µM | OVCAR-5 > 100 µM | SW-620 > 100 µM | NCI-H226 > 100 µM | SK-MEL-5 > 100 µM | 786-0 > 100 µM | MDA-N > 100 µM | HT-29 > 100 µM | SK-MEL-28 > 100 µM | IGROV-1 > 100 µM

CC(=O)OCCCCn1cc(Cn2ccc(=O)n(Cc3cn(CCCCOC(C)=O)nn3)c2=O)nn1
inactive: Malme-3M > 100 µM | U-251 > 100 µM | SN12C > 100 µM | SF-295 > 100 µM | A498 > 100 µM | MCF7 > 100 µM | A549 > 100 µM | NCI-H23 > 100 µM | HOP-92 > 100 µM | OVCAR-5 > 100 µM | SW-620 > 100 µM | NCI-H226 > 100 µM | SK-MEL-5 > 100 µM | 786-0 > 100 µM | MDA-N > 100 µM | SK-MEL-28 > 100 µM | IGROV-1 > 100 µM

CN(Nc1cc(=O)[nH]c(=O)[nH]1)c1ccccc1
inactive: Malme-3M > 100 µM | U-251 > 100 µM | SN12C > 100 µM | SF-295 > 100 µM | A498 > 100 µM | MCF7 > 100 µM | A549 > 100 µM | NCI-H23 > 100 µM | HOP-92 > 100 µM | OVCAR-5 > 100 µM | SW-620 > 100 µM | NCI-H226 > 100 µM | SK-MEL-5 > 100 µM | 786-0 > 100 µM | MDA-N > 100 µM | HT-29 > 100 µM | SK-MEL-28 > 100 µM | IGROV-1 > 100 µM

CCOC(=O)c1cc2c3c(c(C(C)=O)c(O)c2[nH]1)N(C(C)=O)CC3
inactive: Malme-3M 64.3 µM | U-251 > 100 µM | SN12C > 100 µM | SF-295 52.7 µM | A498 52.5 µM | MCF7 55.8 µM | NCI-H23 46.9 µM | OVCAR-5 > 100 µM | SW-620 > 100 µM | NCI-H226 71.4 µM | SK-MEL-5 52.7 µM | 786-0 > 100 µM | MDA-N > 100 µM | HT-29 > 100 µM | SK-MEL-28 34.4 µM | IGROV-1 31.8 µM

COc1ccc(NCc2c(O)ccc3ccccc23)cc1
inactive: Malme-3M 20.7 µM | U-251 28.3 µM | SN12C 34.4 µM | SF-295 43 µM | NCI-H522 14.8 µM | A498 24.6 µM | MCF7 28.8 µM | A549 61.4 µM | NCI-H23 36.3 µM | HOP-92 16.1 µM | OVCAR-5 11.3 µM | SW-620 21.4 µM | SK-MEL-5 12.4 µM | 786-0 16.4 µM | MDA-N 30.1 µM | HT-29 21.6 µM | SK-MEL-28 27.4 µM | IGROV-1 20.4 µM

CC(C)CC(NC(=O)OC(C)(C)C)C(=O)NC(CCC(=O)OCc1ccc([N+](=O)[O-])cc1)C(=O)OCc1ccc([N+](=O)[O-])cc1 (stereo not drawn) (Boc-Leu-Glu(ONb)-ONb; configuration not given here)
inactive: Malme-3M > 100 µM | U-251 27.6 µM | SN12C > 100 µM | SF-295 43.4 µM | NCI-H522 4.57 µM | A498 40.2 µM | MCF7 > 10 µM | NCI-H23 20 µM | HOP-92 56.4 µM | OVCAR-5 > 100 µM | SW-620 50.9 µM | 786-0 26.1 µM | MDA-N 44.8 µM | HT-29 21.2 µM | SK-MEL-28 15.8 µM | IGROV-1 24.4 µM

COC(=O)C1(Cc2ccc3c(c2)CCC3)Cc2ccccc2C1=O (stereo unspecified)
inactive: Malme-3M 17.5 µM | U-251 13.4 µM | SN12C 27.6 µM | SF-295 9.98 µM | NCI-H522 7.66 µM | A498 18.4 µM | MCF7 7.06 µM | A549 21.1 µM | NCI-H23 19 µM | OVCAR-5 26.4 µM | SW-620 4.49 µM | NCI-H226 18.2 µM | SK-MEL-5 4.3 µM | 786-0 24.5 µM | MDA-N 2.72 µM | HT-29 5.46 µM | SK-MEL-28 7.14 µM | IGROV-1 14 µM

COc1ccc(C2SCC(=O)N2NC(=O)c2ccc(NC(C)=O)cc2)cc1 (stereo unspecified)
inactive: U-251 40.6 µM | SN12C > 100 µM | SF-295 > 100 µM | A498 > 100 µM | MCF7 > 100 µM | A549 > 100 µM | NCI-H23 > 100 µM | HOP-92 38 µM | OVCAR-5 > 100 µM | SW-620 > 100 µM | NCI-H226 > 100 µM | SK-MEL-5 > 100 µM | 786-0 > 100 µM | MDA-N > 100 µM | HT-29 > 100 µM | SK-MEL-28 > 100 µM | IGROV-1 > 100 µM

CC(C)(C)n1c(=O)n(-c2ccccc2)n(C(C)(C)C)c1=O
inactive: Malme-3M > 100 µM | U-251 > 100 µM | SN12C > 100 µM | SF-295 > 100 µM | A498 > 100 µM | MCF7 > 100 µM | A549 > 100 µM | NCI-H23 > 100 µM | HOP-92 > 100 µM | OVCAR-5 > 100 µM | SW-620 > 100 µM | NCI-H226 > 100 µM | SK-MEL-5 > 100 µM | 786-0 > 100 µM | MDA-N > 100 µM | HT-29 > 100 µM | SK-MEL-28 > 100 µM | IGROV-1 > 100 µM

C[S+]([O-])c1ncc2c(n1)-c1ccccc1OC2 (stereo unspecified)
inactive: Malme-3M > 100 µM | U-251 > 100 µM | SN12C 47 µM | SF-295 > 100 µM | NCI-H522 > 100 µM | MCF7 38.5 µM | A549 > 100 µM | NCI-H23 > 100 µM | HOP-92 49.3 µM | OVCAR-5 > 100 µM | SW-620 > 100 µM | NCI-H226 > 100 µM | SK-MEL-5 78.3 µM | 786-0 > 100 µM | MDA-N > 100 µM | HT-29 61.5 µM | SK-MEL-28 > 100 µM | IGROV-1 49.1 µM
